In EP0358047A2, “Method of controlling phytopathogenic fungi” (AMERICAN CYANAMID COMPANY, priority 1988, dated 1990):
Like-named read-outs stand apart in the source and are kept apart here.

What was measured:
Test in all cases: In vitro fungicide screen: inhibition of mycelial growth on agar medium
Assay type in all cases: cell-based
[1] = test system: Botrytis cinerea (Botry); conditions: five days, room temperature
Procedure: (§1) Severe soilborne diseases such as damping off, seedling blight, crown rot, and root rot, among others are caused by certain plant pathogenic fungi. An in vitro assay is conducted to determine whether test compounds will inhibit the mycelial growth of said fungi. Pathogens, the method of testing, and the rating system used are reported below.
(§2) Assay fungi include the following plant pathogens: • Botrytis cinerea (Botry) • Pseudocerosporella herpotrichoides (Pseudo) • Pythium ultimum (Pyth) • Rhizoctonia solani (Rhiz)
(§3) The test compound (2.5-10 mg) is dissolved in 0.5 mL acetone, diluted with 4.5 mL sterile deionized water, and mixed with 95 mL of an autoclaved and partially cooled, chemically defined agar medium in a 250 mL flask. Test compounds that are insoluble are prepared as a fine suspension ultrasonically, or with a glass tissue grinder, before addition to the medium. The chemically defined medium used in these experiments is as follows: • 15 g of sucrose, 0.5 g NH4Cl, 0.5 g KNO3, 0.5 g KH2PO4, 0.5 g K2HP04, 0.25 g MgSO4.7H2O, 50 mg CaC)2.6H20, 0.75 mg FeSO4.7H2O, 0.22 mg MnSO4.5H2O, 0.6 mg CuSO4.5H2O, 7.5 mg ZnC12, 2.5 mg thiamine, 60 µg(NH4)6Mo7O24.4H2O, 90 u.g H3BO3, 5 ug biotin, 20 g agar, and water to 1L.
(§4) The mixture of test compound and agar medium as described above is poured into several 100 mm x 15 mm sterile plastic plates and allowed to solidify. The surface of each plate is inoculated with a single disc of mycelium and agar cut with an 8 mm diameter cork borer from actively growing cultures of assay fungi on a chemically defined agar medium. The plates are incubated at room temperature. Growth inhibition is determined when the mycelial growth on unamended control media has reached the edge of the petri plates. The time interval varies depending on the growth rate of the fungus; two days for Pythium ultimum (Pyth) and Rhizoctonia solani (Rhiz), five days for Botrytis cinerea (Botry), and 7-10 days for Pseudocercosporella herpotrichoides (Pseudo). Each colony diameter is measured and compared with the untreated control and the percent inhibition is calculated as follows: [formula] Each test includes a solvent blank consisting of the formulation without a test compound in addition to the untreated control.

[2] = test system: Pseudocercosporella herpotrichoides (Pseudo); conditions: 7-10 days, room temperature
Procedure: as §1, §2, §3, §4

[3] = test system: Pythium ultimum (Pyth); conditions: two days, room temperature; for inhibition at 1 ppm: Rate 1 ppm in agar medium
Procedure: as §1, §2, §3, §4

[4] = test system: Rhizoctonia solani (Rhiz); conditions: for inhibition at 10 ppm: read-out: % Growth Inhibition Rhiz
Procedure: as §1, §2, §3, §4

[5] = Botrytis cinerea, 120 h, Rate 100 ppm in agar medium
[6] = Oculimacula yallundae, Rate 100 ppm in agar medium
[7] = Globisporangium ultimum, 48 h, Rate 100 ppm in agar medium
[8] = Rhizoctonia solani, 48 h, Rate 100 ppm in agar medium, two days, room temperature
[9] = Rhizoctonia solani, 48 h, Rate 10 ppm in agar medium, two days, room temperature

Question: What does the source list for `N#Cc1cc[nH]c1-c1ccc(Cl)cc1` [2(p-Chlorophenyl)-pyrrole-3-carbonitrile]?
Answer: inhibition at 100 ppm [1, 5]: 68%; inhibition at 100 ppm [2, 6]: 86%; inhibition at 100 ppm [3, 7]: 95%; inhibition at 100 ppm [4, 8]: 61%

Question: With `O=[N+]([O-])c1c(-c2ccccc2)[nH]c(Br)c1Br` [2,3-Dibromo-4-nitro-5-phenyl-pyrrole] as the molecule, how does the inhibition at 100 ppm [1, 5] read?
Answer: 87%

Question: And the inhibition at 100 ppm [2, 6]?
Answer: 71%

Question: What about the inhibition at 100 ppm [3, 7] of the same molecule?
Answer: 97%

Question: What about the inhibition at 100 ppm [4, 8] of the same molecule?
Answer: 63%

Question: `O=[N+]([O-])c1c(-c2ccc(C(F)(F)F)cc2)[nH]c(Cl)c1Cl` [2,3-Dichloro-4-nitro-5-(α,α,α-trifluoro-p-tolyl)-pyrrole] was tested. Which inhibition at 100 ppm [1, 5] did it give?
Answer: 100%

Question: And the inhibition at 100 ppm [2, 6]?
Answer: 100%

Question: What about the inhibition at 100 ppm [3, 7] of the same molecule?
Answer: 100%

Question: And the inhibition at 100 ppm [4, 8]?
Answer: 100%

Question: Which results are given for `O=[N+]([O-])c1c(-c2ccccc2)[nH]c(Cl)c1Cl` [2,3-Dichloro-4-nitro-5-phenyl-pyrrole, 2,3-Dichloro-4-nitro-5-phenylpyrrole]?
Answer: inhibition at 100 ppm [1, 5]: 97%; inhibition at 100 ppm [2, 6]: 100%; inhibition at 100 ppm [3, 7]: 100%; inhibition at 100 ppm [4, 8]: 81%

Question: What does the source list for `O=[N+]([O-])c1c(-c2ccc(Cl)cc2)[nH]c(Cl)c1Cl` [2,3-Dichloro-5-(p-chlorophenyl) -4-nitropyrrole]?
Answer: inhibition at 100 ppm [1, 5]: 96.3%; inhibition at 100 ppm [2, 6]: 50%; inhibition at 100 ppm [3, 7]: 92.1%; inhibition at 100 ppm [4, 8]: 96%

Question: With `O=[N+]([O-])c1c(Br)[nH]c(Br)c1-c1ccccc1` [2,5-dibromo-3-nitro-4-phenyl-pyrrole] as the molecule, how does the inhibition at 10 ppm ([2]; Oculimacula yallundae, Rate 10 ppm in agar medium) read?
Answer: 100%

Question: What about the inhibition at 1 ppm ([3]; Globisporangium ultimum, 48 h) of the same molecule?
Answer: 100%

Question: What about the inhibition at 10 ppm [4, 9] of the same molecule?
Answer: 100%

Question: With `N#Cc1cc[nH]c1-c1cccc(Cl)c1` [2-(m-Chloro-phenyl)pyrrole-3-carbonitrile] as the molecule, how does the inhibition at 100 ppm [1, 5] read?
Answer: 74%

Question: What about the inhibition at 100 ppm [2, 6] of the same molecule?
Answer: 67%

Question: And the inhibition at 100 ppm [3, 7]?
Answer: 82%

Question: And the inhibition at 100 ppm [4, 8]?
Answer: 95%

Question: With `O=[N+]([O-])c1c(-c2ccc(Br)cc2)[nH]c(Cl)c1Cl` [2-(p-Bromo-phenyl)-4,5-dichloro-3-nitropyrrole] as the molecule, how does the inhibition at 100 ppm [1, 5] read?
Answer: 89%

Question: What about the inhibition at 100 ppm [2, 6] of the same molecule?
Answer: 83%

Question: And the inhibition at 100 ppm [3, 7]?
Answer: 68%

Question: And the inhibition at 100 ppm [4, 8]?
Answer: 92%

Question: For `N#Cc1cc[nH]c1-c1ccccc1` [2-Phenylpyrrole-3-carbonitrile, 2-Phenylpyrrole-3-carbonitrile], which inhibition at 100 ppm [1, 5] is on record?
Answer: 95%

Question: And the inhibition at 100 ppm [2, 6]?
Answer: 100%

Question: What about the inhibition at 100 ppm [3, 7] of the same molecule?
Answer: 100%

Question: What about the inhibition at 100 ppm [4, 8] of the same molecule?
Answer: 89%

Question: With `N#Cc1c(-c2ccccc2Cl)[nH]c(Cl)c1Cl` [4,5 Dichloro-2-(o-chlorophenyl) pyrrole-3-carbo-nitrile] as the molecule, how does the “% Growth Inhibition Botry” value ([1]; Rate 100 ppm in agar medium) read?
Answer: 3.1%

Question: What about the “% Growth Inhibition Pseudo” value ([2]; Rate 100 ppm in agar medium) of the same molecule?
Answer: 16.7%

Question: What about the “% Growth Inhibition Pyth” value ([3]; Rate 100 ppm in agar medium) of the same molecule?
Answer: 0%

Question: What about the “% Growth Inhibition Rhiz” value ([4]; Rate 100 ppm in agar medium, two days, room temperature) of the same molecule?
Answer: 52.6%

Question: With `N#Cc1c(-c2ccc(Cl)cc2)[nH]c(Cl)c1Cl` [4,5-Dichloro-2-(p-chlorophenyl)pyrrole-3-carbonitrile] as the molecule, how does the inhibition at 25 ppm ([1]; Botrytis cinerea, 120 h, Rate 25 ppm in agar medium) read?
Answer: 82.1%

Question: And the inhibition at 50 ppm ([1]; Botrytis cinerea, 120 h, Rate 50 ppm in agar medium)?
Answer: 71.4%

Question: What about the inhibition at 100 ppm [1, 5] of the same molecule?
Answer: 66.7%

Question: What about the inhibition at 25 ppm ([2]; Oculimacula yallundae, Rate 25 ppm in agar medium) of the same molecule?
Answer: 0%

Question: What about the inhibition at 50 ppm ([2]; Oculimacula yallundae, Rate 50 ppm in agar medium) of the same molecule?
Answer: 40%

Question: And the inhibition at 100 ppm [2, 6]?
Answer: 42.8%

Question: What about the inhibition at 25 ppm ([3]; Globisporangium ultimum, 48 h, Rate 25 ppm in agar medium) of the same molecule?
Answer: 34.2%

Question: And the inhibition at 50 ppm ([3]; Globisporangium ultimum, 48 h, Rate 50 ppm in agar medium)?
Answer: 44.7%

Question: What about the inhibition at 100 ppm [3, 7] of the same molecule?
Answer: 45%

Question: What about the inhibition at 25 ppm ([4]; Rhizoctonia solani, 48 h, Rate 25 ppm in agar medium, two days, room temperature) of the same molecule?
Answer: 73.3%

Question: And the inhibition at 50 ppm ([4]; Rhizoctonia solani, 48 h, Rate 50 ppm in agar medium, two days, room temperature)?
Answer: 73.3%

Question: And the inhibition at 100 ppm [4, 8]?
Answer: 64.7%

Question: With `N#Cc1c(-c2ccc(Cl)cc2)[nH]c(C(F)(F)F)c1Br` [4-Bromo-2-(p-chlorophenyl)-5-(trifluoromethyl)pyrrole-3-carbonitrile] as the molecule, how does the inhibition at 10 ppm ([4]; Rhizoctonia solani, 48 h) read?
Answer: 100%

Question: With `N#Cc1cc([N+](=O)[O-])c(-c2ccc(Cl)c(Cl)c2)[nH]1` [5-(3,4-Dichlorophenyl)-4-nitropyrrole-2-carbonitrile] as the molecule, how does the inhibition at 1 ppm ([3]; Globisporangium ultimum, 48 h) read?
Answer: 100%

Question: And the inhibition at 10 ppm [4, 9]?
Answer: 100%
